In ChEMBL document CHEMBL1201862, “PubChem BioAssay data set” (2004):
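Values below derive from 48-hour exposures of cells grown in 96-well plates, with endpoints linearly interpolated between the two concentrations bracketing the appropriate inhibition level. GI50 marks 50% less growth.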 The source made the active and inactive calls. No stated cut-off is given here; in the data, active = GI50 up to about 1.1 µM and inactive = higher.

Experiments:
Experiment in all cases: growth of human tumour cells (NCI), 48 h
SR = system: SR
SF-268 = system: SF-268
HOP-92 = system: HOP-92
SNB-75 = system: SNB-75
DU-145 = system: DU-145
MDA-MB-435 = system: MDA-MB-435
COLO 205 = system: COLO 205
PC-3 = system: PC-3
LOX IMVI = system: LOX IMVI
CCRF-CEM = system: CCRF-CEM
TK-10 = system: TK-10
UO-31 = system: UO-31
HOP-62 = system: HOP-62
U-251 = system: U-251
KM12 = system: KM12
786-0 = system: 786-0
SK-MEL-2 = system: SK-MEL-2
K562 = system: K562
OVCAR-5 = system: OVCAR-5
Malme-3M = system: Malme-3M

Measured: GI50

O=C1O/C(=C\c2ccccc2)N(c2ccccc2)C1=O
inactive: SR > 100 µM | SF-268 > 100 µM | HOP-92 > 100 µM | SNB-75 > 100 µM | DU-145 > 100 µM | MDA-MB-435 > 100 µM | COLO 205 > 100 µM | PC-3 > 100 µM | LOX IMVI > 100 µM | CCRF-CEM > 100 µM | TK-10 > 100 µM | UO-31 > 100 µM | HOP-62 > 100 µM | U-251 > 100 µM | KM12 > 100 µM | 786-0 > 100 µM | SK-MEL-2 > 100 µM | K562 > 100 µM | OVCAR-5 > 100 µM

Cc1nc2sc(CCl)nn2c(=O)c1Cl
inactive: SR 4.61 µM | SF-268 14.2 µM | HOP-92 5.7 µM | SNB-75 10.9 µM | Malme-3M 11.2 µM | DU-145 16.1 µM | MDA-MB-435 4.95 µM | COLO 205 16.7 µM | PC-3 12.3 µM | LOX IMVI 1.92 µM | CCRF-CEM 3.61 µM | TK-10 12.5 µM | UO-31 14.2 µM | HOP-62 17.6 µM | U-251 6.08 µM | KM12 11.9 µM | 786-0 10.6 µM | SK-MEL-2 11.1 µM | K562 12.1 µM | OVCAR-5 15.1 µM

COc1ccc(-n2nnc3c(C#N)c(-c4ccccc4)c(C)n3c2=O)cc1
inactive: SR 7.45 µM | SF-268 83.4 µM | HOP-92 23.8 µM | SNB-75 27.1 µM | Malme-3M > 100 µM | DU-145 74.8 µM | MDA-MB-435 > 100 µM | COLO 205 33.7 µM | PC-3 29.2 µM | LOX IMVI 33.8 µM | CCRF-CEM 8.39 µM | TK-10 84.7 µM | UO-31 71.3 µM | HOP-62 35.4 µM | U-251 32.7 µM | KM12 48.9 µM | 786-0 19.1 µM | SK-MEL-2 28 µM | K562 18.4 µM | OVCAR-5 > 100 µM

CC1(C)CCC[C@@]2(C)C1CC[C@@]1(CO1)[C@@H]2/C=C\C(C=O)CC=O (some centres not stated)
inactive: SR 37.6 µM | SF-268 > 100 µM | HOP-92 > 100 µM | SNB-75 > 80.5 µM | Malme-3M > 100 µM | DU-145 > 100 µM | MDA-MB-435 > 100 µM | COLO 205 > 91.8 µM | PC-3 > 70.3 µM | LOX IMVI > 67.1 µM | CCRF-CEM 17.3 µM | TK-10 > 100 µM | UO-31 > 94.8 µM | HOP-62 > 100 µM | U-251 > 96.6 µM | KM12 > 67.9 µM | 786-0 > 75.3 µM | SK-MEL-2 > 100 µM | K562 26.5 µM | OVCAR-5 > 100 µM

COC(C)(C)CCc1[nH]c2ccccc2c1CC(=O)NCCc1cncn1C
inactive: SR > 100 µM | SF-268 > 100 µM | HOP-92 > 100 µM | SNB-75 > 100 µM | Malme-3M > 100 µM | DU-145 > 100 µM | MDA-MB-435 > 100 µM | COLO 205 > 100 µM | PC-3 > 100 µM | LOX IMVI > 100 µM | CCRF-CEM > 100 µM | TK-10 > 100 µM | UO-31 > 100 µM | U-251 > 100 µM | KM12 > 100 µM | 786-0 > 100 µM | SK-MEL-2 > 100 µM | K562 > 100 µM | OVCAR-5 > 100 µM

OC1NC2Nc3ccccc3NC2NC1O (configuration not stated)
inactive: SR > 100 µM | SF-268 > 100 µM | HOP-92 30.8 µM | SNB-75 > 100 µM | Malme-3M > 100 µM | DU-145 > 100 µM | MDA-MB-435 > 100 µM | COLO 205 > 100 µM | PC-3 > 100 µM | LOX IMVI > 100 µM | CCRF-CEM > 100 µM | TK-10 > 100 µM | HOP-62 > 100 µM | U-251 > 100 µM | KM12 > 100 µM | 786-0 > 100 µM | SK-MEL-2 > 100 µM | K562 > 100 µM | OVCAR-5 > 100 µM

CN1C(=O)[C@](C)(Cc2ccc(F)cc2)N(C(=O)OC(C)(C)C)[C@@H]1C(C)(C)C
inactive: SR 21.2 µM | SF-268 55.3 µM | HOP-92 30.7 µM | SNB-75 29.2 µM | Malme-3M > 100 µM | DU-145 42.3 µM | MDA-MB-435 39.3 µM | COLO 205 19.5 µM | PC-3 30.5 µM | LOX IMVI 21.6 µM | CCRF-CEM 40.9 µM | TK-10 80.9 µM | UO-31 33.6 µM | HOP-62 40.7 µM | U-251 29.6 µM | KM12 30.5 µM | 786-0 29.3 µM | SK-MEL-2 31.3 µM | K562 25.6 µM | OVCAR-5 > 100 µM
